{"source": "ChEMBL document CHEMBL1150444", "about": "“A new class of diacidic nonpeptide angiotensin II receptor antagonists” (Bioorg Med Chem Lett, 1994)", "key": {"[1]": {"molecular_target": "T1, Type-1 angiotensin II receptor (Bos taurus, UniProt P25104)", "T1 sequence (P25104 whole entry)": "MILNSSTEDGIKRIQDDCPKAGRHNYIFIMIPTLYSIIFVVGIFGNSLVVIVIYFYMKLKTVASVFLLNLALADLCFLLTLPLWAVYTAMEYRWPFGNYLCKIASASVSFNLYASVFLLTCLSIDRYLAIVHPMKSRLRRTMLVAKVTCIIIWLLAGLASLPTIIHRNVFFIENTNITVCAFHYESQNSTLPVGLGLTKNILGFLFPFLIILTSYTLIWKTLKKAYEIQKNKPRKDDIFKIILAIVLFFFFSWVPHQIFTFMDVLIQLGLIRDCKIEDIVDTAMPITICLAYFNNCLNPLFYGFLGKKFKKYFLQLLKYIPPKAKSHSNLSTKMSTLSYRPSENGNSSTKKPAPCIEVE", "assay": "Concentration required to inhibit [125I]AII binding to Angiotensin II receptor from membrane fractions of bovine adrenal cortex", "assay_type": "tissue-based"}, "[2]": {"organism": "Oryctolagus cuniculus", "assay": "In vitro inhibition of contraction of rabbit aorta strips measured as pD2 calculated by the method of Van Rossum", "assay_type": "functional"}, "[3]": {"organism": "Oryctolagus cuniculus", "assay": "In vitro inhibition of contraction of rabbit aorta strips measured as pA2 calculated by the method of Van Rossum", "assay_type": "functional", "details": "read-out: pA2 (converted)"}, "[4]": {"system": "Rattus norvegicus", "assay": "Inhibitory effect at a dose of 1mg/gk, po on AII induced pressor response at a dose of 100ng/kg, iv in conscious normotensive rats", "assay_type": "functional"}, "[5]": {"organism": "Oryctolagus cuniculus", "assay": "Percent response at a dose of 9M on AII induced contraction in isolated rabbit aorta, expressed as percent of maximal response", "assay_type": "functional"}, "[6]": {"organism": "Oryctolagus cuniculus", "assay": "Percent response at a dose of 8M on AII induced contraction in isolated rabbit aorta, expressed as percent of maximal response", "assay_type": "functional"}, "[7]": {"organism": "Oryctolagus cuniculus", "assay": "Percent response at a dose of […] on AII induced contraction in isolated rabbit aorta, expressed as percent of maximal response", "assay_type": "functional"}}}
{"smiles": "CCCCc1nc2c(C)cnc(C(=O)O)c2n1Cc1ccc(-c2ccccc2-c2nn[nH]n2)cc1", "values": [{"measurement": "IC50", "setting": "[1]", "value": 0.036, "unit": "µM"}, {"measurement": "pD2", "setting": "[2]", "value": 9.16}]}
{"smiles": "CCSc1nc2c(C)scc2n1Cc1ccc(-c2ccccc2-c2nn[nH]n2)cc1", "values": [{"measurement": "IC50", "setting": "[1]", "value": 1.2, "unit": "µM"}, {"measurement": "Kb", "setting": "[3]", "value": 0.0055, "unit": "µM"}, {"measurement": "Inhibition", "setting": "[4]", "value": 18, "unit": "%"}, {"measurement": "Response", "setting": "[5]", "value": 85, "unit": "%"}, {"measurement": "Response", "setting": "[6]", "value": 85, "unit": "%"}]}
{"smiles": "CCSc1nc2c(C)sc(C(=O)O)c2n1Cc1ccc(-c2ccccc2-c2nn[nH]n2)cc1", "values": [{"measurement": "IC50", "setting": "[1]", "value": 0.5, "unit": "µM"}, {"measurement": "Inhibition", "setting": "[4]", "value": 100, "unit": "%"}, {"measurement": "pD2", "setting": "[2]", "value": 9.65}, {"measurement": "Response", "setting": "[5]", "value": 25, "unit": "%"}, {"measurement": "Response", "setting": "[7]", "value": 65, "unit": "%"}]}
{"smiles": "CCOc1nc2cccc(C(=O)O)c2n1Cc1ccc(-c2ccccc2-c2nnn[nH]2)cc1", "note": "[CANDESARTAN]", "values": [{"measurement": "pD2", "setting": "[2]", "value": 9.97}]}
{"smiles": "CCOc1nc2ccccc2n1Cc1ccc(-c2ccccc2-c2nnn[nH]2)cc1", "values": [{"measurement": "IC50", "setting": "[1]", "value": 0.39, "unit": "µM"}, {"measurement": "Kb", "setting": "[3]", "value": 0.0117, "unit": "µM"}]}
{"smiles": "CCCc1cn2nccc2n1Cc1ccc(-c2ccccc2-c2nn[nH]n2)cc1", "values": [{"measurement": "IC50", "setting": "[1]", "value": 3.3, "unit": "µM"}, {"measurement": "Kb", "setting": "[3]", "value": 0.0575, "unit": "µM"}]}
{"smiles": "CCCc1cn2ncc(C(=O)O)c2n1Cc1ccc(-c2ccccc2-c2nn[nH]n2)cc1", "values": [{"measurement": "IC50", "setting": "[1]", "value": 0.048, "unit": "µM"}, {"measurement": "pD2", "setting": "[2]", "value": 9.58}]}
{"smiles": "CCCCc1nc2c(C)cncc2n1Cc1ccc(-c2ccccc2-c2nnn[nH]2)cc1", "values": [{"measurement": "IC50", "setting": "[1]", "value": 0.054, "unit": "µM"}, {"measurement": "Kb", "setting": "[3]", "value": 0.012, "unit": "µM"}]}
